Numbered stars: 1 amine (or outer) side, 2 acyl side, 3 side chain; on linkers, the order of the positions; unused ones are H or OH. Peptide text beside a SMILES is read from it. * marks the point of attachment. AMC = Cc1cc(=O)oc2cc(N*)ccc12; Suc = O=C(CCC(=O)[*:2])[*:1]; Cbz = O=C(OCc1ccccc1)*; OtBu = CC(C)(C)O*
Key:
[1] = test system: proteasome in MV4‐11 cells; test: Cellular conversion of fluorogenic proteasome substrates (assay validation); format: cell-based
Experimental: First, we benchmarked the fluorogenic substrate 30 towards the standard substrate 31 (Suc‐LLVY‐AMC) using varying substrate concentrations and cell numbers of MV4‐11 cells (Figure 5b). The highest substrate conversion was detected using 100 μM 30 in 50.000 cells (135 rfu/min) in MV4‐11 cells and was converted ∼4 times faster than 31 (33.3 rfu/min). There was an increase of differences in conversion rates with smaller number of cells (10.000 cells, 100 μM substrate: 10‐fold conversion) and lower substrate concentration (50.000 cells, 25 μM substrate: 15‐fold conversion).
In‐cell determination of proteasome IC 50. […] Inhibitors were serially diluted in RPMI‐1640 medium as 10‐fold stocks, added to cells giving final concentrations and incubated for 0 h–13 h at 37 °C and 5 % CO2 (Figure S5–S8). Substrate was added to give a final concentration of 30 μM and substrate conversion was detected by fluorescence measurement over 100 min (assay validation) or 60 min (inhibition assays) using a Tecan M1000 microplate reader. Rate of fluorescence change over time was calculated, rates for negative (no‐cell) control was subtracted and normalized to positive control (no inhibitor). Dose‐response curves were fitted to the equation “Y=100/(1+10^((L°^gIC50−X)*HillSl°^pe))” using GraphPad Prism 7.02 (SI chapter 2b, Figure S2–S4).

[2] = target: T1, β1c subunit of isolated human 20S proteasome (Homo sapiens, UniProt P28072); test: Proteasome inhibition assay (20 S Proteasome Assay Kit, Z‐LLE‐AMC); format: biochemical; conditions: c = 1 µM, n=1; read-out: Inhibition cCP β1
T1 construct: purchased Enzo Life Sciences
Experimental: (§1) Proteasome inhibition assay. […] The 20 S Proteasome Assay Kit for Drug Discovery was used according to the supplier's protocol using Suc‐LLVY‐AMC (β5), Bz‐VGR‐AMC (β2) or Z‐LLE‐AMC (β1) as substrates (Enzo Life Sciences). Single point measurements of residual activity of proteasome activity were performed at a final concentration of 100 nM (n=3, β5c, β5i) or 1 μM (n=1, β1c, β2c, β5c, β5i, SI chapter 2a, Table S1). […] Inhibitors were prepared in 2‐fold concentration (cfinal=100 nM) and added to proteasomes (mfinal=200 ng/well). After 30 min incubation, substrate was added (cfinal=100 μM), incubated for 60 minutes and fluorescence was read using a Tecan M1000 microplate reader. […] IC50 values were determined from technical duplicates as mean value of three independent experiments.

[3] = test system: Danio rerio embryos; test: Danio rerio embryo toxicity assay (not dechorionated); format: in vivo
Experimental: Danio rerio embryo toxicity assay. Fish keeping protocols are approved by the Darmstadt administrative authority and documented. All fish were treated humanely. […] Embryos were decollated into separate wells containing a total volume of 200 μL and the inhibitor at the given concentration.

[4] = test system: Danio rerio embryos; test: Danio rerio escape response (neurotoxicity) assay, dechorionated embryos; format: in vivo; conditions: for C-Bend Amplitude, Difference between means / C-Bend duration, Difference between means / Number of movements per 100 ms, Difference between means / Number of total movements, Difference between means: versus control
Experimental: Danio rerio escape response assay. 24 hours past fertilization embryos were dechorionated and transferred into 96‐well plates containing 198 μL of E3 media at 26 °C. […] Incubation times were 24 h, 48 h and 72 h. Survival of the embryos was determined by visual analysis of heart‐beat. For recording the touch evoked escape response, embryos were transferred to a microscopy slide with cavity that is placed on a SL‐300 LED Soft Light (Dörr, Neu‐Ulm, Germany) under a MotionBlitz EoSens mini1‐1 MC1370 high speed camera (Mikrotron, Unterschleißheim, Germany, Figure S18). An escape response was triggered by a touch stimulus at the trunk of embryos using a small sewing needle, which is slightly blunted. For each embryo, a maximum of 50 stimuli was applied. […] No escape response was determined if only one embryo was alive at 96 hpf. Movement was recorded at 96 hpf at 500 frames per second for 3 seconds using the MotionBlitzDirector 2 software. Determination of the amplitude α defined by the body angle spanned between the head, yolk and tail using a MATLAB‐based software tool and plotted using GraphPad Prism 7.02.

[5] = target: T2, β2c subunit of isolated human 20S proteasome (Homo sapiens, UniProt Q99436); test: Proteasome inhibition assay (20 S Proteasome Assay Kit, Bz‐VGR‐AMC); format: biochemical; conditions: c = 1 µM, n=1; read-out: Inhibition cCP β2
T2 construct: purchased Enzo Life Sciences
Experimental: Proteasome inhibition assay. Bortezomib (Selleckchem) and carfilzomib (MedChemExpress) were purchased and used without further purification. The 20 S Proteasome Assay Kit for Drug Discovery was used according to the supplier's protocol using Suc‐LLVY‐AMC (β5), Bz‐VGR‐AMC (β2) or Z‐LLE‐AMC (β1) as substrates (Enzo Life Sciences). Single point measurements of residual activity of proteasome activity were performed at a final concentration of 100 nM (n=3, β5c, β5i) or 1 μM (n=1, β1c, β2c, β5c, β5i, SI chapter 2a, Table S1). […] Inhibitors were prepared in 2‐fold concentration (cfinal=100 nM) and added to proteasomes (mfinal=200 ng/well). After 30 min incubation, substrate was added (cfinal=100 μM), incubated for 60 minutes and fluorescence was read using a Tecan M1000 microplate reader. Dose‐response curves were fitted to the equation Y=100/(1+10^((L°^gIC50−X)*HillSl°^pe)) using GraphPad Prism 7.02. IC50 values were determined from technical duplicates as mean value of three independent experiments.

[6] = test system: MV4‐11 cells; test: Cell viability endpoint assay (Celltiter Blue, 72 h); format: cell-based; conditions: Homo sapiens, MV4-11, mean±SD from two independent experiments
Experimental: Cell lines. MV4‐11 (ACC 102), Jurkat (ACC 282) and THP‐1 (ACC 16) cells were obtained from DSMZ and maintained at 37 °C and 5 % CO2 at densities between 0.2–1×10^6 cells per mL in RMPI‐1640 medium supplemented with 10 % FBS, L‐glutamine (2 mM) and penicillin/streptomycin.
Cell viability endpoint assay. For the determination of cytotoxicity of proteasome inhibitors 50.000 cells per well were plated in 90 μl RPMI‐1640 medium supplemented with 0.1 % FBS and incubated overnight at 37 °C and 5 % CO2. Inhibitors were serially diluted in RPMI‐1640 medium as 10‐fold stocks and added to cells giving the final concentration (1 nM to 10 μM, Figure S2–S4) and incubated for 72 h at 37 °C and 5 % CO2. Cell viability was determined using the Celltiter Blue assay (Promega) by adding 20 μl of reagent, incubation for 120 minutes at 37 °C and 5 % CO2 and fluorescent read‐out using a Tecan M1000 microplate reader. Dose‐response curves were fitted to the equation “Y=Bottom+(Top‐Bottom)/(1+10^(X−L°^gIC50))” using GraphPad Prism 7.02. IC50 values are determined from technical triplicates as mean value of two independent experiments. Standard deviations (Table S1) as well as dose response curves (SI chapter 2b) are given in the supplementary information.

[7] = target: T3, β5c subunit of isolated human 20S proteasome (Homo sapiens, UniProt P28074); test: Proteasome inhibition assay (20 S Proteasome Assay Kit, Suc‐LLVY‐AMC); format: biochemical
T3 construct: purchased Enzo Life Sciences
Experimental: as §1

[8] = target: T4, β5i subunit of isolated human 20S proteasome (Homo sapiens, UniProt P28062); test: as above; format: biochemical
T4 construct: purchased Enzo Life Sciences
Experimental: as §1

[9] = 100 μM substrate, 50.000 MV4‐11 cells
[10] = 25 μM, 24 h, listed as bortezomib
[11] = 25 μM, 48 h, listed as bortezomib
[12] = 50 μM, 24 h, listed as bortezomib

SMILES: Cc1cc(=O)oc2cc(NC(=O)[C@H](C)NC(=O)[C@H](CC(=O)OC(C)(C)C)NC(=O)[C@H](CC(C)C)NC(=O)OCc3ccccc3)ccc12 [Compound 30, Z‐LD(OtBu)A‐AMC] (Cbz-Leu-Asp(OtBu)-Ala-{AMC})
- conversion of 30 relative to 31 [1, 9]: ~4 times
- substrate conversion [1, 9]: 135 rfu/min
- conversion of 30 relative to 31 ([1]; 10.000 cells, 100 μM substrate): 10 fold
- conversion of 30 relative to 31 ([1]; 50.000 cells, 25 μM substrate): 15 fold

SMILES: CC(C)C[C@H](NC(=O)[C@H](Cc1ccccc1)NC(=O)c1cnccn1)B(O)O [Bortezomib 1, Bortezomib, reference compound]
- inhibition at 1 µM [2]: 80%
- Survival of embryos (not dechorionated) ([3]; 1 µM, 24 h): 100%
- Survival of embryos (not dechorionated) ([3]; 1 µM, 48 h): 100%
- Survival of embryos (not dechorionated) ([3]; 1 µM, 72 h): 100%
- Survival of embryos (not dechorionated) ([3]; 1 µM, 96 h): 100%
- Survival of embryos (not dechorionated) ([3]; 5 µM, 24 h): 100%
- Survival of embryos (not dechorionated) ([3]; 5 µM, 48 h): 100%
- Survival of embryos (not dechorionated) ([3]; 5 µM, 72 h): 100%
- Survival of embryos (not dechorionated) ([3]; 5 µM, 96 h): 80%
- Survival of embryos (not dechorionated) ([3]; 10 µM, 24 h): 100%
- Survival of embryos (not dechorionated) ([3]; 10 µM, 48 h): 100%
- Survival of embryos (not dechorionated) ([3]; 10 µM, 72 h): 100%
- Survival of embryos (not dechorionated) ([3]; 10 µM, 96 h): 100%
- Survival of embryos (not dechorionated) ([3]; 25 µM, 24 h): 100%
- Survival of embryos (not dechorionated) ([3]; 25 µM, 48 h): 100%
- Survival of embryos (not dechorionated) ([3]; 25 µM, 72 h): 100%
- Survival of embryos (not dechorionated) ([3]; 25 µM, 96 h): 80%
- Reflex Duration ([4]; 25 µM, 24 h): 540,2 ± 136,6 ms
- mean reflexes per stimuli ([4]; 25 µM, 24 h): 8%
- C-Bend Amplitude ([4]; 25 μM, 24 h, listed as 1): 131,6 ± 21,3 °
- C-Bend Duration ([4]; 25 μM, 24 h, listed as 1): 32,67 ± 6,489 ms
- Number of movements ([4]; 25 μM, 24 h, listed as 1): 11,56 ± 3,33
- Number of movements per 100 ms ([4]; 25 μM, 24 h, listed as 1): 1,916 ± 0,3504
- C-Bend Amplitude [4, 10]: 131.6±21.3 °
- C-Bend Duration [4, 10]: 32.7 ± 6.5 ms
- Number of movements per 100 ms [4, 10]: 1.92±0.35
- C-Bend Amplitude, Difference between means ([4]; 25 µM, 24 h): 2,556 ± 25,09
- C-Bend duration, Difference between means ([4]; 25 µM, 24 h): 13 ± 6,633
- Number of movements per 100 ms, Difference between means ([4]; 25 µM, 24 h): -1,559 ± 0,4739
- Reflex Duration ([4]; 25 µM, 48 h): 289,3 ± 198,9 ms
- mean reflexes per stimuli ([4]; 25 µM, 48 h): 2%
- C-Bend Amplitude ([4]; 25 μM, 48 h, listed as 1): 6,889 ± 5,549 °
- C-Bend Duration ([4]; 25 μM, 48 h, listed as 1): 8,222 ± 6,654 ms
- Number of movements ([4]; 25 μM, 48 h, listed as 1): 3,222 ± 2,259
- Number of movements per 100 ms ([4]; 25 μM, 48 h, listed as 1): 0,2435 ± 0,1615
- C-Bend Amplitude [4, 11]: 6.9±5.6 °
- Number of movements per 100 ms [4, 11]: 0.24±0.32
- C-Bend Amplitude, Difference between means ([4]; 25 µM, 48 h): -122,1 ± 14,37
- Number of movements per 100 ms, Difference between means ([4]; 25 µM, 48 h): -3,231 ± 0,3577
- Number of total movements, Difference between means ([4]; 25 µM, 48 h): -10,89 ± 3,622
- Number of movements per 100 ms ([4]; 50 μM, 24 h): 0±0
- Reflex Duration ([4]; 50 μM, 24 h): 0 ± 0 ms
- responses to touch stimuli ([4]; 50 μM, 24 h, 50 stimuli per embryo, 150 stimuli total): 0
- C-Bend Amplitude ([4]; 50 μM, 24 h, listed as 1): 0 ± 0 °
- C-Bend Duration ([4]; 50 μM, 24 h, listed as 1): 0 ± 0 ms
- Number of movements ([4]; 50 μM, 24 h, listed as 1): 0 ± 0
- C-Bend Amplitude [4, 12]: 0±0 °
- C-Bend Duration [4, 12]: 0 ± 0 ms
- Number of movements [4, 12]: 0
- C-Bend Amplitude, Difference between means ([4]; 50 µM, 24 h): -129 ± 13,26
- C-Bend duration, Difference between means ([4]; 50 µM, 24 h): -19,67 ± 1,374
- Number of movements per 100 ms, Difference between means ([4]; 50 µM, 24 h): -3,475 ± 0,3192
- Number of total movements, Difference between means ([4]; 50 µM, 24 h): -14,11 ± 2,831
- overall survival at low doses ([4]; dechorionated embryos): 92%
- Survived (embryos of 4) ([4]; dechorionated, 25 µM, 24 h): 4
- Survived (embryos of 4) ([4]; dechorionated, 25 µM, 48 h): 3
- Survived (embryos of 4) ([4]; dechorionated, 50 µM, 24 h): 4
- treated embryos dead ([4]; dechorionated, 50 μM 48 h to 72 h and 25 μM 72 h): 100%
- inhibition at 1 µM [5]: 5%
- IC50 [6]: 0.034 ± 0.005 µM
- inhibition at 1 µM ([7]; c = 1 µM, n=1, read-out: Inhibition cCP β5): 98%
- inhibition at 0.1 µM ([7]; c=100 nM, read-out: Rel. Inhibition β5c): 89%
- inhibition at 1 µM ([8]; c = 1 µM, n=1, read-out: Inhibition iCP β5): 98%
- inhibition at 0.1 µM ([8]; c=100 nM, read-out: Rel. Inhibition β5i): 85%

SMILES: Cc1cc(=O)oc2cc(NC(=O)[C@H](Cc3ccc(O)cc3)NC(=O)[C@@H](NC(=O)[C@H](CC(C)C)NC(=O)[C@H](CC(C)C)NC(=O)CCC(=O)O)C(C)C)ccc12 [Compound 31, Suc‐LLVY‐AMC] (Suc-LLVY-{AMC})
- substrate conversion [1, 9]: 33.3 rfu/min
